Test results from patent US12617831B2 (UNIVERSITE D'ANGERS, priority 2019, dated 2026).

How the values were obtained:
[1] = system: ovariectomy-induced bone loss in mice; assay: Trabecular bone microarchitecture, fifth lumbar vertebra, ovariectomized mice; format: in vivo; conditions: OVX mice, L5, once 100 μg/kg iv, vs vehicle
Protocol: At 16 weeks of age, ALZET osmotic pumps (model number 2006, Durect Corp., Cupertino, CA) filled with the below saline or peptide were implanted subcutaneously between the two scapula under general anesthesia in 32 mice. Successful filling of pumps was verified by weighting the pump before and after filling. At 20 weeks of age, ALZET osmotic pumps were replaced by similar pumps to ensure delivery for four new weeks. […] This dose and regimen of zoledronic acid was equivalent to the 5 mg infusion approved for the treatment of post-menopausal osteoporosis in humans. Analyses of vertebral bodies of the fifth lumbar vertebra (L5) were performed with a Nanotom nanotomograph (Phoenix, GE, USA) operated at 85 kV, 220 μA, 1000 ms integration time. The isotropic pixel size was fixed at 4 μm, the rotation step at 0.25° and exposure was done with a 0.1 mm copper filter. Each 3D reconstruction image dataset was binarized using global thresholding. Trabecular volume of interest was computerized on coronal sections of the L5 vertebral body. Trabecular VOI was spread over the entire vertebral body excluding the first and last 80 μm from the anterior and posterior cortical wall. All microCT/NanoCT parameters were determined according to guidelines and nomenclature proposed by the American Society for Bone and Mineral Research (Bouxsein et al., 2010).

[2] = system: ovariectomy-induced bone loss in mice; assay: Bone matrix composition by FTIRI at the femur midshaft, ovariectomized mice; format: in vivo; conditions: OVX mice, cortical bone femur, once 100 μg/kg iv, vs vehicle
Protocol: At 16 weeks of age, ALZET osmotic pumps (model number 2006, Durect Corp., Cupertino, CA) filled with the below saline or peptide were implanted subcutaneously between the two scapula under general anesthesia in 32 mice. Successful filling of pumps was verified by weighting the pump before and after filling. At 20 weeks of age, ALZET osmotic pumps were replaced by similar pumps to ensure delivery for four new weeks. […] This dose and regimen of zoledronic acid was equivalent to the 5 mg infusion approved for the treatment of post-menopausal osteoporosis in humans. After three-point bending experiments, femurs were embedded undecalcified in pMMA at 4° C. One-micrometer cross-sectional sections of the midshaft femur were sandwiched between BaF2 optical windows and Fourier transform infrared imaging (FTIRI) assessment was performed in the posterior quadrant. FTIRI was performed with a vertex 70 spectrometer (Bruker, Ettlingen, Germany) interfaced with a Hyperion 3000 microscope and a focal plane array detector (64×64 pixels) covering a field of view of 180×180 μm. Nine field-of-view were stitched together to allow sufficient bone to be analyzed. Sections were scanned with a spectral resolution of 8 cm^-1 (spectral region 900-2000 cm^-1). Each spectrum was corrected for Mie scattering with the […]5 algorithm (kind gift of Prof Peter Gardner, University of Manchester, UK) prior to be subjected to pMMA subtraction. Evaluation of spectral images was done with a lab-made routine script in Matlab R2016b (The Mathworks, Natick, MA) as described in Aguado et al. (2017) Calcif Tissue Int 100:332-340. FTIR bone parameters ([…] (2012) Methods Mol Biol 816:517-525) calculated were: (1) phosphate/amide ratio (area of v1, v3 phosphate/area amide1); (2) acid phosphate content (intensity ratio 1127 cm^-1/1096 cm^-1) (Spevak et al. (2013) Calcif Tissue Int 92:418-428); (3) mineral crystallinity (intensity ratio 1030 cm^-1/1020 cm^-1), reflecting crystal size and perfection; […] (2001) J Bone Miner Res 16:893-900). For each of the compositional parameters, the mean and full width at half maximum of the pixel distribution (excluding the zero background values) were computed and represented as mean and heterogeneity.

For `O=P(O)(O)C(O)(Cn1ccnc1)P(=O)(O)O` [zoledronic acid], the “increase in trabecular bone mass (BV/TV)” value [1] was 15%, the “increase in trabecular number” value [1] was 12% and the “augmentation of mineral crystallinity heterogeneity” value [2] was 21%.
